Measured values from PMC11702208 (RSC Advances, 2025).
Values joined by “and” are separate entries in the source; they are usually repeats but may differ in a detail not shown here. Equal values may be shown once.

Tests used:
[1] = test system: NCI-H522; assay: NCI cytotoxicity screen; type: cell-based, human; conditions: 10.0 μM one dose
[2] = test system: CAKI-1; assay: NCI cytotoxicity screen; type: cell-based, human; conditions: 10.0 μM one dose
[3] = test system: UO-31; assay: NCI cytotoxicity screen; type: cell-based, human; conditions: 10.0 μM one dose
[4] = test system: EKVX; assay: NCI cytotoxicity screen; type: cell-based, human; conditions: 10.0 μM one dose
[5] = test system: RPMI-8226; assay: NCI cytotoxicity screen; type: cell-based, human; conditions: 10.0 μM one dose
[6] = test system: MDA-MB-231/ATCC; assay: NCI cytotoxicity screen; type: cell-based, human; conditions: 10.0 μM one dose; MDA-MB-231/ATCC
[7] = test system: RXF 393; assay: NCI cytotoxicity screen; type: cell-based, human; conditions: 10.0 μM one dose
[8] = test system: 59 cancer cell lines; assay: NCI cytotoxicity screen, full panel; type: cell-based, human; conditions: 10.0 μM one dose; 59 cell lines
[9] = test system: NCI-H322M; assay: NCI cytotoxicity screen; type: cell-based, human; conditions: 10.0 μM one dose
[10] = test system: MCF7; assay: NCI cytotoxicity screen; type: cell-based, human; conditions: 10.0 μM one dose; MCF-7
[11] = test system: MDA-MB-468; assay: NCI cytotoxicity screen; type: cell-based, human; conditions: 10.0 μM one dose
[12] = test system: SF-268; assay: NCI cytotoxicity screen; type: cell-based, human; conditions: 10.0 μM one dose
[13] = test system: SN12C; assay: NCI cytotoxicity screen; type: cell-based, human; conditions: 10.0 μM one dose; SN-12C
[14] = test system: NCI-H226; assay: NCI cytotoxicity screen; type: cell-based, human; conditions: 10.0 μM one dose
[15] = test system: SF-539; assay: NCI cytotoxicity screen; type: cell-based, human; conditions: 10.0 μM one dose
[16] = test system: HS 578T; assay: NCI cytotoxicity screen; type: cell-based, human; conditions: 10.0 μM one dose; HS-578T
[17] = biological target: EGFR (Homo sapiens, UniProt P00533); assay: biochemical; conditions: IC50 EGFR inhibition
[18] = biological target: T1, COX-2 (Ovis aries, UniProt P79208); assay: Colorimetric COX; type: biochemical, ovine
T1 sequence (P79208 17-603): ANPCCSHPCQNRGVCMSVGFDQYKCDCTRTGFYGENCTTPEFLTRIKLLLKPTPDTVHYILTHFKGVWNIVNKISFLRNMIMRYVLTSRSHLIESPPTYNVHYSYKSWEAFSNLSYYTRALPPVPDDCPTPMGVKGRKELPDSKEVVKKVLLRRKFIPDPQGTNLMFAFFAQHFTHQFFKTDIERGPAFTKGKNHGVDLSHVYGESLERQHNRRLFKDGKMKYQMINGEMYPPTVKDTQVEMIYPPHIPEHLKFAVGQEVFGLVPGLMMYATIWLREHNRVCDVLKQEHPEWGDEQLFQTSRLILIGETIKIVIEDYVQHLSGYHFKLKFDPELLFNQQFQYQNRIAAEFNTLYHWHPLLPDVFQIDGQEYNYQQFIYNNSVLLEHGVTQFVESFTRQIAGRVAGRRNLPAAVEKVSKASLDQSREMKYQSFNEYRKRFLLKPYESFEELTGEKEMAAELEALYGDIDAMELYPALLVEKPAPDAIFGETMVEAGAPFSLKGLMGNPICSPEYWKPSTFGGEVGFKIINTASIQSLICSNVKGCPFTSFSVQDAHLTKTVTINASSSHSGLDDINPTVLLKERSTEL

[19] = biological target: CDK9 (Homo sapiens, UniProt P50750); assay: biochemical; conditions: IC50 CDK9 inhibition
[20] = biological target: HER2 (Homo sapiens, UniProt P04626); assay: HER2 tyrosine kinase assay; type: biochemical; conditions: IC50 HER2 inhibition
[21] = test system: SNB-75; assay: NCI cytotoxicity screen; type: cell-based, human; conditions: 10.0 μM one dose
[22] = test system: HCT-116; assay: NCI cytotoxicity screen; type: cell-based, human; conditions: 10.0 μM one dose
[23] = test system: SK-MEL-5; assay: NCI cytotoxicity screen; type: cell-based, human; conditions: 10.0 μM one dose
[24] = test system: U251; assay: NCI cytotoxicity screen; type: cell-based, human; conditions: 10.0 μM one dose; U-251
[25] = test system: T-47D; assay: NCI cytotoxicity screen; type: cell-based, human; conditions: 10.0 μM one dose; T-47D
[26] = test system: SNB-19; assay: NCI cytotoxicity screen; type: cell-based, human; conditions: 10.0 μM one dose
[27] = test system: OVCAR-5; assay: NCI cytotoxicity screen; type: cell-based, human; conditions: 10.0 μM one dose; OVCAR-5
[28] = test system: SR; assay: NCI cytotoxicity screen; type: cell-based, human; conditions: 10.0 μM one dose
[29] = test system: LOX IMVI; assay: NCI cytotoxicity screen; type: cell-based, human; conditions: 10.0 μM one dose
[30] = test system: MDA-MB-435; assay: NCI cytotoxicity screen; type: cell-based, human; conditions: 10.0 μM one dose
[31] = test system: 786-0; assay: NCI cytotoxicity screen; type: cell-based, human; conditions: 10.0 μM one dose
[32] = test system: BT-549; assay: NCI cytotoxicity screen; type: cell-based, human; conditions: 10.0 μM one dose
[33] = test system: NCI-H23; assay: NCI cytotoxicity screen; type: cell-based, human; conditions: 10.0 μM one dose
[34] = test system: MALME-3M; assay: NCI cytotoxicity screen; type: cell-based, human; conditions: 10.0 μM one dose; MALME-3M
[35] = test system: UACC-62; assay: NCI cytotoxicity screen; type: cell-based, human; conditions: 10.0 μM one dose
[36] = test system: KM12; assay: NCI cytotoxicity screen; type: cell-based, human; conditions: 10.0 μM one dose; KM-12
[37] = test system: M14; assay: NCI cytotoxicity screen; type: cell-based, human; conditions: 10.0 μM one dose
[38] = test system: HOP-92; assay: NCI cytotoxicity screen; type: cell-based, human; conditions: 10.0 μM one dose

Sequence of HER2 (P04626 23-1255): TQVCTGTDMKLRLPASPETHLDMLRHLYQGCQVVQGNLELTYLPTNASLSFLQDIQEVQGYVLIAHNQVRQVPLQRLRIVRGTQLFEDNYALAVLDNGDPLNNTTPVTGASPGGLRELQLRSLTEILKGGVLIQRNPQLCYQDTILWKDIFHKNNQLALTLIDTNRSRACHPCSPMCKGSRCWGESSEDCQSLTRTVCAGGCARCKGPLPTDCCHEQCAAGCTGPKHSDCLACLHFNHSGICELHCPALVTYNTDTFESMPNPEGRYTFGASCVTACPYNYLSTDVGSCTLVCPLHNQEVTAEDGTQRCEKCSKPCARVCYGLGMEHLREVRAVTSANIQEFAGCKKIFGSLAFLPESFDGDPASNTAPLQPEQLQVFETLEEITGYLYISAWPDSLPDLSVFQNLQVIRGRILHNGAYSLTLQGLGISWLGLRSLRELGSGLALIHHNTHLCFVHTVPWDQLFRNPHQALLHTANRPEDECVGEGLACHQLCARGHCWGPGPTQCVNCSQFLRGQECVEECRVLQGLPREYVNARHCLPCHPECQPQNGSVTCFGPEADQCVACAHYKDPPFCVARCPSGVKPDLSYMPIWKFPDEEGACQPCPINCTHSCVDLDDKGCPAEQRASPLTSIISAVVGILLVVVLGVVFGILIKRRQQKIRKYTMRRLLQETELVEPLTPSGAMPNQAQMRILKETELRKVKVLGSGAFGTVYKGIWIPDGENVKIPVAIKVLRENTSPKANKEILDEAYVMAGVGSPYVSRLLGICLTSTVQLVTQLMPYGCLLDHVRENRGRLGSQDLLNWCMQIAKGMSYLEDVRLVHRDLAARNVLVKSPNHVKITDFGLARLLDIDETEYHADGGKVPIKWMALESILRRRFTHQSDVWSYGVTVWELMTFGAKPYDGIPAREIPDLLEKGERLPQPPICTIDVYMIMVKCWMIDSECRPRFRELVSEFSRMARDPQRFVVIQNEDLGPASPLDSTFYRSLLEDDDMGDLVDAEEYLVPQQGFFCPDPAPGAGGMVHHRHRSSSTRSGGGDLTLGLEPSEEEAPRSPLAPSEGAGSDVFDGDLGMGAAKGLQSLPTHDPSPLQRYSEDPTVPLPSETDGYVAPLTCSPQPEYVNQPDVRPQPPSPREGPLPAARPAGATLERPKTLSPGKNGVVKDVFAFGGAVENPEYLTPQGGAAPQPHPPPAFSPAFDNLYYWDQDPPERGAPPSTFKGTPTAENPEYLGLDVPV
Sequence of CDK9 (P50750 whole entry): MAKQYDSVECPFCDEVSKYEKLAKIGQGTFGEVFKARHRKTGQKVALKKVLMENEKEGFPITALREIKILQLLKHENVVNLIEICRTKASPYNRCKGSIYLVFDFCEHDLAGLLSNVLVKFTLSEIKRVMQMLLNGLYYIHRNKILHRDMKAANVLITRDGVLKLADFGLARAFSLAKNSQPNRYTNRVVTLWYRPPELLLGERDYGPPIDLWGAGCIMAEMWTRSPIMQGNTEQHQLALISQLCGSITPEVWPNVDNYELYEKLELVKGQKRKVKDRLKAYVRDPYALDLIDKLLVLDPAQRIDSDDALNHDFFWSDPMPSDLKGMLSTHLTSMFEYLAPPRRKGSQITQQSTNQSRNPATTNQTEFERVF
Sequence of CDK9 (O60563 whole entry partner): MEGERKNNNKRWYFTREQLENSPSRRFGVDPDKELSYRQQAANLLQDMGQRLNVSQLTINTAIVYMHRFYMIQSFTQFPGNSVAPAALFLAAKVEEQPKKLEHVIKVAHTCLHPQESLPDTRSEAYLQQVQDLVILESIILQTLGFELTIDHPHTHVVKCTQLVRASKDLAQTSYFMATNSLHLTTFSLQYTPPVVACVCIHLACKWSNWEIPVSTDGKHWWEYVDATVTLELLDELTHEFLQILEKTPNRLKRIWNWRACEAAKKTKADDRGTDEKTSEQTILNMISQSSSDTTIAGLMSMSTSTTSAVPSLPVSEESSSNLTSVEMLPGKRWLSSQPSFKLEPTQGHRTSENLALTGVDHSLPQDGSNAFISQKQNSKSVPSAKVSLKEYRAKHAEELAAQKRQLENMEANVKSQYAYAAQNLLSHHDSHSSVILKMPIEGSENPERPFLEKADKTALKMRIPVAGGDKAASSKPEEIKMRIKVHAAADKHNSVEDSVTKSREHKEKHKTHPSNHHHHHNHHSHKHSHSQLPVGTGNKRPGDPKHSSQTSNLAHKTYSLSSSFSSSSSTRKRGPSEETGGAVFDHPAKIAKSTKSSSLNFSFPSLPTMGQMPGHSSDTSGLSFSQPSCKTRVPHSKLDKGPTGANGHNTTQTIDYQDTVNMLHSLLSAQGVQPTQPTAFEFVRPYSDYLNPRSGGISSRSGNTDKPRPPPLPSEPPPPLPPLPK
Sequence of EGFR (P00533 25-1210): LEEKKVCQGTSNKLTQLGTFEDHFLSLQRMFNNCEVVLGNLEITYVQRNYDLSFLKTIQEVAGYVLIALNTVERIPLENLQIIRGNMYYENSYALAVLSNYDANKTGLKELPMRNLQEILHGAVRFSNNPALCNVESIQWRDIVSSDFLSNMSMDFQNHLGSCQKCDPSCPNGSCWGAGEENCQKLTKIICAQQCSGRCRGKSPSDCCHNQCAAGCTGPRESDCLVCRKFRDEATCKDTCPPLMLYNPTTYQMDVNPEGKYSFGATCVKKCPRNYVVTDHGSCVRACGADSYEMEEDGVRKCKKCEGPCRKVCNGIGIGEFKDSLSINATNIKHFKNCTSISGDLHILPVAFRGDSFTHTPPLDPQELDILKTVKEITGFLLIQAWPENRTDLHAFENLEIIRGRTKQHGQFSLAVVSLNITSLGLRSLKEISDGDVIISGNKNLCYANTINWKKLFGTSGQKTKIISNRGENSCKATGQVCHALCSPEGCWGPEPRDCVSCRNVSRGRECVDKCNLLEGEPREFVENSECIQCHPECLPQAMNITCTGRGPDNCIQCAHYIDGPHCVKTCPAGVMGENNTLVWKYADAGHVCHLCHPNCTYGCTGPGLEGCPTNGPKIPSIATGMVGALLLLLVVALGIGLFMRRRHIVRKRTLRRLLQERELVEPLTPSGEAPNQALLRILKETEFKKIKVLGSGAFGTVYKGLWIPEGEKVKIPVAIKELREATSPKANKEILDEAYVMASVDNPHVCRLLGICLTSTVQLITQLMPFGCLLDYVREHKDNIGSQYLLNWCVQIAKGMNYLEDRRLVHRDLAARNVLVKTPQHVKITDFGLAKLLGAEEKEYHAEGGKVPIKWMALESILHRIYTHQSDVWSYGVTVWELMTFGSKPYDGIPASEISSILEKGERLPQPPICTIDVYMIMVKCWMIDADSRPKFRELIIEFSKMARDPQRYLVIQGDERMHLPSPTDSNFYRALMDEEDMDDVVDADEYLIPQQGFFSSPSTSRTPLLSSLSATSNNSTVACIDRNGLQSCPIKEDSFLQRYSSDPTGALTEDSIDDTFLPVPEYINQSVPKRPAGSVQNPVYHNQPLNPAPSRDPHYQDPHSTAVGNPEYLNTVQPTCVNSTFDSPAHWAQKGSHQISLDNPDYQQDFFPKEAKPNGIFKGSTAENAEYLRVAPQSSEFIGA

Row | Compound | GI % [1] [%] | GI % [2] [%] | GI % [3] [%] | GI % [4] [%] | GI % [6] [%] | GI % [7] [%] | MG% (mean growth percent) [8] | GI % [10] [%] | GI % [11] [%] | GI % [12] [%] | GI % [15] [%] | GI % [16] [%] | GI % [21] [%] | GI % [24] [%] | GI % [25] [%] | other results
1 | COc1cc(C=NNC(=O)CSc2nc3ccccc3c(=O)n2Cc2ccc(S(N)(=O)=O)cc2)cc(OC)c1OC [Compound 8, 4-((4-Oxo-2-((2-oxo-2-(2-(3,4,5-trimethoxybenzylidene)hydrazineyl)ethyl)thio)quinazolin-3(4H)-yl)methyl)benzenesulfonamide] | 48 | 14 | 25 | 15 | 15 | 10 | 96.8% and 96.77% | 11 | 19 | 15 | 12 | 15 | – | – | – | GI % [5]: 13%; GI % [9]: 15%; GI % [13]: 10%; GI % [14]: 11%
2 | COc1cccc(C=NNC(=O)CSc2nc3ccccc3c(=O)n2Cc2ccc(S(N)(=O)=O)cc2)c1 [Compound 7, 4-((2-((2-(2-(3-Methoxybenzylidene)hydrazineyl)-2-oxoethyl)thio)-4-oxoquinazolin-3(4H)-yl)methyl)benzenesulfonamide] | – | – | – | – | – | – | 89.4% and 89.35% | – | – | – | – | – | – | – | – | IC50 [17]: 594 ± 14.5 nM; IC50 [18]: 50500 ± 1060 nM; IC50 [19]: 155 ± 3.81 nM; IC50 [20]: 387 nM
3 | COc1cccc(C(C)=NNC(=O)CSc2nc3ccccc3c(=O)n2Cc2ccc(S(N)(=O)=O)cc2)c1 [Compound 11, 4-((2-((2-(2-(1-(3-Methoxyphenyl)ethylidene)hydrazineyl)-2-oxoethyl)thio)-4-oxoquinazolin-3(4H)-yl)methyl)benzenesulfonamide] | 52 | 21 | 21 | – | 25 | 16 | 94.5% and 94.54% | 10 | 19 | 25 | 28 | 19 | 22 | 20 | 11 | GI % [22]: 20%; GI % [23]: 10%; GI % [26]: 15%; GI % [27]: 12%
4 | CCOC(=O)CSc1nc2ccccc2c(=O)n1Cc1ccc(S(N)(=O)=O)cc1 [Compound 2, Ethyl 2-((4-oxo-3-(4-sulfamoylbenzyl)-3,4-dihydroquinazolin-2-yl)thio)acetate] | – | – | 16 | – | – | – | – | – | – | – | – | – | 15 | – | – | –
5 | COc1cc(C(C)=NNC(=O)CSc2nc3ccccc3c(=O)n2Cc2ccc(S(N)(=O)=O)cc2)cc(OC)c1OC [Compound 13, 4-((4-Oxo-2-((2-oxo-2-(2-(1-(3,4,5-trimethoxyphenyl)ethylidene)hydrazineyl)ethyl)thio)quinazolin-3(4H)-yl)methyl)benzenesulfonamide] | – | 15 | 24 | – | 11 | – | 97.44% | 11 | 16 | – | – | – | 13 | – | 15 | GI % [28]: 12%
6 | COc1cc(OC)cc(C(C)=NNC(=O)CSc2nc3ccccc3c(=O)n2Cc2ccc(S(N)(=O)=O)cc2)c1 [Compound 12, 4-((2-((2-(2-(1-(3,5-Dimethoxyphenyl)ethylidene)hydrazineyl)-2-oxoethyl)thio)-4-oxoquinazolin-3(4H)-yl)methyl)benzenesulfonamide] | 62 | 16 | – | – | 28 | 30 | 88.4% | – | 27 | 64 | 64 | 11 | 39 | 26 | 62 | GI % [29]: 20%; GI % [22]: 17%; IC50 [17]: 492 ± 12.1 nM; GI % [23]: 32%; GI % [30]: 30%; GI % [31]: 15%; GI % [32]: 57%; GI % [33]: 17%; IC50 [18]: 21300 ± 440 nM; GI % [26]: 49%; GI % [34]: 30%; GI % [28]: 28%; IC50 [19]: 320 ± 7.85 nM; GI % [27]: 14%; GI % [35]: 17%; IC50 [20]: 111 nM; GI % [36]: 30%; GI % [37]: 11%
7 | NS(=O)(=O)c1ccc(Cn2c(SCC(=O)NN=Cc3ccccc3)nc3ccccc3c2=O)cc1 [Compound 4, 4-((2-((2-(2-Benzylidenehydrazineyl)-2-oxoethyl)thio)-4-oxoquinazolin-3(4H)-yl)methyl)benzenesulfonamide] | 18 | 16 | 21 | 14 | 12 | – | – | 14 | – | – | – | 11 | 13 | – | – | GI % [35]: 11%
8 | NS(=O)(=O)c1ccc(Cn2c(=S)[nH]c3ccccc3c2=O)cc1 [Compound 1, 4-((4-Oxo-2-thioxo-1,4-dihydroquinazolin-3(2H)-yl)methyl)benzenesulfonamide] | – | 11 | 19 | – | – | – | – | – | – | – | – | – | 23 | – | – | GI % [38]: 14%
9 | 4-((4-Oxo-2-((2-oxo-2-(2-(1-(p-tolyl)ethylidene)hydrazineyl)ethyl)thio)quinazolin-3(4H)-yl)methyl)benzenesulfonamide [Compound 10] | – | 16 | 20 | 10 | – | – | – | – | – | 14 | – | – | – | 15 | – | GI % [9]: 14%
